# Earlier results as cited in patent publication US5814653A, “Pharmaceutical method using 6-substituted-1, 2, 3, 4-tetrahydro-9H-carbazoles and 7-substituted-10H -cyclohepta (7, 6-B) indoles” (priority 1997, dated 1998).
# Legend:
# [1] = in vivo
# neurogenic inflammation = conditions: Neurology, 43(suppl. 3), S16-S20 (1993)
# migraine headache = conditions: Humphrey, et al. (1990)
smiles,measurement,setting,value
"CNS(=O)(=O)Cc1ccc2[nH]cc(CCN(C)C)c2c1.O=C(O)CCC(=O)O [Compound I, 3-[2-(dimethylamino)ethyl]-N-methyl-1H-indole-5-methanesulfonamide butane-1,4-dioate (1:1)]",undesirable side effects,[1],"undesirable side effects, particularly vasoconstriction"
same,blockade of neurogenic inflammation,neurogenic inflammation,blocked
same,effectiveness in the treatment of migraine headache,migraine headache,effective in the treatment of migraine
